In US5041426A, “Immune system enhancing 3-β-d-ribofuranosylthiazolo[4,5-d]pyridimine nucleosides and nucleotides” (priority 1988, dated 1991):
Where “and” joins values, the source holds several entries; their conditions need not be identical. Identical values can stand only once.

How the values were obtained:
[1] = tested on: Human Peripheral Blood Mononuclear Cells; experiment: In vitro potentiation of IgM production by human PBMNC or B cells (ELISA); assay type: cell-based
Procedure: After incubation, supernatants were harvested and checked for […]

P388 = experiment: Response of P388 inoculated mice to various dosages, inocula and schedules; assay type: in vivo, mouse
Source text: For this example varying concentrations of the number of test cells utilized for P388 inoculum and concentrations of compound 7 were utilized with various schedules of drug administration.
^a P388 ascites cells were implanted ip in the concentrations
indicated in BDF1 female mice on day 0, and ip bolus injections of
drug were delivered once daily on the days indicated in the conentrations
indicated. Control mice received a 0.09% solution of NaCl delivered on th

[2] = tested on: Herpes Simplex Virus Type 1; experiment: Antiviral activity against Herpes simplex virus type 1 infection in mice; assay type: in vivo, mouse; details: at -48, -24, and -2 h
YAC-1 tumor target cells = experiment: In vivo potentiation of natural killer cell activity in CBA/CaJ mice (spleen cells); details: for % Natural Killer Cytotoxicity: 1.68 mg/mouse i.p.
Procedure: After 1, 2, 3 and 4 days of treatment the spleens of the mice were harvested and the cytotoxic activity of the spleen cells was determined against YAC-1 tumor target cells in the above referred to ^51 Cr release assay as identified in EXAMPLE 32.
(1.68 mg/mouse) by intraperitoneal route.
Each value represents mean ±SD cytotoxic activity of three mice

Rat Coronavirus = experiment: Antiviral activity against rat coronavirus infection in suckling rats; assay type: in vivo; details: half daily doses at -24 and -18 h, of rats that died
Source text: Four to five day old suckling rats were infected intranasally with rat coronavirus. One day previously a divided intraperitoneal dose of compound 7 or placebo was given. As shown in the following Table 19, a high percentage of the rats treated with compound 7 survived this lung infection. Further the rats that died lived longer than the placebo-treated controls.
^b Of rats that died. Survivors lived through 21 days.

P8/5 tumor target cells = experiment: Activation of macrophages following single injection in CBA/CaJ mice; assay type: in vivo; details: Mus musculus, Macrophage
Procedure: The activity of compound 7 with respect to its ability to activate macrophages was tested by injecting CBA/CaJ mice with a single dose of compound 7 (2 mg per mouse) and after 24 hours the cytotoxicity of the spleen cells (SC), non adherent SC and adherent SC was determined.
^a A group of four mice (CBA/CaJ) were injected with 2 mg/mouse of
compound -7 solution. Control group received saline. After 24 hours of
injection, spleens were harvested. Adherent and nonadherent cells were
separated by incubation of spleen cells on plastic plates for one hour.
Cell suspension of spleen cells, nonadherent cells (NC) and adherent cell
(AC) were prepared in complete medium. Cytotoxicity of SC, NC and AC was
then measured against P8/5 tumor t arget cells in 4 hrs and 20 hrs
chromium release assay.

K562 tumor cells = experiment: In vitro augmentation of human natural killer cell activity (PBMNC, 51Cr release); assay type: cell-based; design: % Increase in Induced Natural Killer Cell Activity: concentration or dose not given beside the values
Procedure: The natural killer cell activity in human cells was also measured. In conducting these tests peripheral blood mononuculear cells (PBMNC) were isolated on Ficoll-Hypaque gradient, washed three times in Hanks and re-suspended in RPMI-1640 containing 10% human AB serum as described in Rosenberg, S. A.: Journal American Medical Association, 256:3117, 1986 and the above referred to reference to Djeu, et al. Peripheral blood mononuclear cells (PBMNC) from eleven different donors were treated with compound 7 as described in Djeu, et al. as well as Sharma, B., Odom, L. F.: Cancer Immunol. Immunother. 7.93, 1979, and Sharma, B., Odom, L. F.: Cancer Research 44:3258, 1984.
The PBMNC cells were incubated with compound 7 at 37° C. for 20 to 68 hours in a 5% CO2 humid atmosphere and after incubation the cytotoxicity was determined against K562 tumor cells.
^a Peripheral blood mononuclear cells were treated with 0.05 - 0.4 mM
concentration of compound 7 in RPM11640 containing 10% human AB serum for
20 to 68 hours. After the treatment, effector cells were tested against
K562 target cells in 4 hour ^51 Cr release assay as described in
Sharma et al. above. The data shown here represent the maximum response.
K562 target cells in 4 hour ^51 Cr release assay as previously
described above in Sharma et al. The data represent the maximum response.
Other Nucleosides and Nucleotides of the invention were tested for their activity in human natural killer cells […] as per example 33 above.

Structure (SMILES): Nc1nc2c(sc(=O)n2[C@@H]2O[C@H](CO)[C@@H](O)[C@H]2O)c(=O)[nH]1 [Compound 7, 5-Amino-3-β-D-ribofuranosylthiazolo[4,5-d]pyrimidine-2,7(6H)-dione]
- increase of IgM over cultures without compound 7 ([1]; SAC activated PBMNC): over a two fold increase
- increase in IgM production ([1]; up to): up to 34 fold
- groups showing an increase in life span (P388; 26 of the 34 groups): 76%
- % Increased Life Span (P388; Study 1, 1 × 10^2 cells, 37 mg/kg/inj day 1-9): 0%
- % Increased Life Span (P388; Study 1, 1 × 10^2 cells, 37 mg/kg/inj day 1, 3 mice, printed as cures): 2 cures
- % Increased Life Span (P388; Study 1, 1 × 10^2 cells, 62 mg/kg/inj day 1-9): 33%
- % Increased Life Span (P388; Study 1, 1 × 10^2 cells, 62 mg/kg/inj day 1, 3 mice, printed as cures): 1 cure
- % Increased Life Span (P388; Study 1, 1 × 10^2 cells, 104 mg/kg/inj day 1): 0%
- % Increased Life Span (P388; Study 1, 1 × 10^2 cells, 104 mg/kg/inj day 1-9): 10%
- % Increased Life Span (P388; Study 2, 1 × 10^2 cells, 8 mg/kg/inj day 1): 9%
- % Increased Life Span (P388; Study 2, 1 × 10^2 cells, 13 mg/kg/inj day 1): 7%
- % Increased Life Span (P388; Study 2, 1 × 10^2 cells, 22 mg/kg/inj day 1): 7%
- % Increased Life Span (P388; Study 2, 1 × 10^2 cells, 37 mg/kg/inj day 1): 3%
- % Increased Life Span (P388; Study 3, 1 × 10^4 cells, 37 mg/kg/inj day 1): 2%
- % Increased Life Span (P388; Study 3, 1 × 10^4 cells, 37 mg/kg/inj day 1-9): 0%
- % Increased Life Span (P388; Study 3, 1 × 10^4 cells, 62 mg/kg/inj day 1): 0%
- % Increased Life Span (P388; Study 3, 1 × 10^4 cells, 62 mg/kg/inj day 1-9): 2%
- % Increased Life Span (P388; Study 3, 1 × 10^4 cells, 104 mg/kg/inj day 1): 0%
- % Increased Life Span (P388; Study 3, 1 × 10^4 cells, 104 mg/kg/inj day 1-9): 6%
- % Increased Life Span (P388; Study 4, 1 × 10^6 cells, 37 mg/kg/inj day 1): 0%
- % Increased Life Span (P388; Study 4, 1 × 10^6 cells, 37 mg/kg/inj day 1-9): 5%
- % Increased Life Span (P388; Study 4, 1 × 10^6 cells, 62 mg/kg/inj day 1): 0%
- % Increased Life Span (P388; Study 4, 1 × 10^6 cells, 62 mg/kg/inj day 1-9): 5%
- % Increased Life Span (P388; Study 4, 1 × 10^6 cells, 104 mg/kg/inj day 1): 9%
- % Increased Life Span (P388; Study 4, 1 × 10^6 cells, 104 mg/kg/inj day 1-9): 23%
- % Increased Life Span (P388; Study 5, 1 × 10^6 cells, 37 mg/kg/inj day 2): 0%
- % Increased Life Span (P388; Study 5, 1 × 10^6 cells, 37 mg/kg/inj day 2,4): 8%
- % Increased Life Span (P388; Study 5, 1 × 10^6 cells, 37 mg/kg/inj day 2-6): 8%
- % Increased Life Span (P388; Study 5, 1 × 10^6 cells, 62 mg/kg/inj day 2): 5%
- % Increased Life Span (P388; Study 5, 1 × 10^6 cells, 62 mg/kg/inj day 2,4): 8%
- % Increased Life Span (P388; Study 5, 1 × 10^6 cells, 62 mg/kg/inj day 2-6): 15%
- % Increased Life Span (P388; Study 5, 1 × 10^6 cells, 104 mg/kg/inj day 2): 10%
- % Increased Life Span (P388; Study 5, 1 × 10^6 cells, 104 mg/kg/inj day 2,4): 5%
- % Increased Life Span (P388; Study 5, 1 × 10^6 cells, 104 mg/kg/inj day 2-6): 12%
- toxicity (P388; Study 6, 140 mg/kg/inj day 2,4,6,8, 7 mice): toxic in one animal
- % Increased Life Span (P388; Study 6, 1 × 10^6 cells, 140 mg/kg/inj day 2): 4%
- % Increased Life Span (P388; Study 6, 1 × 10^6 cells, 140 mg/kg/inj day 2,4,6,8): 21%
- % Increased Life Span (P388; Study 6, 1 × 10^6 cells, 140 mg/kg/inj day 2,6): 20%
- Mean Survival Time ([2]; 50 mg/kg/day): 14.8 ± 5.0 days
- Mean Survival Time ([2]; 100 mg/kg/day): 11.4 ± 1.8 days
- Mean Survival Time ([2]; 200 mg/kg/day): 11.0 ± 1.7 days
- % Natural Killer Cytoxicity (YAC-1 tumor target cells; 0.84 mg i.p., E:T 50:1): 38 ± 7%
- % Natural Killer Cytoxicity (YAC-1 tumor target cells; 0.84 mg i.p., E:T 100:1): 48 ± 9%
- % Natural Killer Cytoxicity (YAC-1 tumor target cells; 0.84 mg i.p., E:T 150:1): 56 ± 8.5%
- increase in natural killer cell activity (YAC-1 tumor target cells; 0.84 mg to 3.36 mg per mouse): all doses of compound 7 induced a marked increase in natural killer cell activity
- % Natural Killer Cytoxicity (YAC-1 tumor target cells; 1.68 mg i.p., E:T 50:1 (Table 4)): 44 ± 8%
- % Natural Killer Cytoxicity (YAC-1 tumor target cells; 1.68 mg i.p., E:T 100:1 (Table 4)): 56 ± 12%
- % Natural Killer Cytoxicity (YAC-1 tumor target cells; 1.68 mg i.p., E:T 150:1 (Table 4)): 61 ± 14%
- % Natural Killer Cytotoxicity (YAC-1 tumor target cells; 1 day after treatment, E:T 50:1): 53 ± 5%
- % Natural Killer Cytotoxicity (YAC-1 tumor target cells; 1 day after treatment, E:T 100:1): 64 ± 5%
- % Natural Killer Cytotoxicity (YAC-1 tumor target cells; 1 day after treatment, E:T 150:1): 71 ± 9%
- % Natural Killer Cytotoxicity (YAC-1 tumor target cells; 2 days after treatment, E:T 50:1): 46 ± 9%
- % Natural Killer Cytotoxicity (YAC-1 tumor target cells; 2 days after treatment, E:T 100:1): 64 ± 5%
- % Natural Killer Cytotoxicity (YAC-1 tumor target cells; 2 days after treatment, E:T 150:1): 65 ± 7%
- % Natural Killer Cytotoxicity (YAC-1 tumor target cells; 3 days after treatment, E:T 50:1): 38 ± 6.6%
- % Natural Killer Cytotoxicity (YAC-1 tumor target cells; 3 days after treatment, E:T 100:1): 50 ± 7%
- % Natural Killer Cytotoxicity (YAC-1 tumor target cells; 3 days after treatment, E:T 150:1): 63 ± 6%
- % Natural Killer Cytotoxicity (YAC-1 tumor target cells; 4 days after treatment, E:T 50:1): 30 ± 0.1%
- % Natural Killer Cytotoxicity (YAC-1 tumor target cells; 4 days after treatment, E:T 100:1): 37 ± 1.5%
- % Natural Killer Cytotoxicity (YAC-1 tumor target cells; 4 days after treatment, E:T 150:1): 48 ± 3%
- % Natural Killer Cytoxicity (YAC-1 tumor target cells; 2.52 mg i.p., E:T 50:1): 48 ± 6.6%
- % Natural Killer Cytoxicity (YAC-1 tumor target cells; 2.52 mg i.p., E:T 100:1): 62 ± 7%
- % Natural Killer Cytoxicity (YAC-1 tumor target cells; 2.52 mg i.p., E:T 150:1): 70 ± 5%
- % Natural Killer Cytoxicity (YAC-1 tumor target cells; 3.36 mg i.p., E:T 50:1): 48 ± 4.6%
- % Natural Killer Cytoxicity (YAC-1 tumor target cells; 3.36 mg i.p., E:T 100:1): 67 ± 10%
- % Natural Killer Cytoxicity (YAC-1 tumor target cells; 3.36 mg i.p., E:T 150:1): 74 ± 6.4%
- Emax (YAC-1 tumor target cells; Mus musculus, YAC-1, 24 h, read-out: maximum response, increase in natural killer cell activity): 382%
- increase in natural killer cell activity (YAC-1 tumor target cells; single injection 1.68 mg per mouse, after 4 days): More than a two fold increase
- Mean Survival Time (Rat Coronavirus; 50): 10.1 ± 2.3 days
- Mean Survival Time (Rat Coronavirus; 100): 10.2 ± 1.8 days
- Mean Survival Time (Rat Coronavirus; 200): 13.0 ± 1.0 days
- cytotoxicity at 2 mg (P8/5 tumor target cells; 4 h, adherent cells, 4 hrs assay): 37%
- cytotoxicity at 2 mg (P8/5 tumor target cells; 4 h, nonadherent spleen cells, 4 hrs assay): 45%
- cytotoxicity at 2 mg (P8/5 tumor target cells; 20 h, adherent cells, 20 hrs assay): 69%
- cytotoxicity at 2 mg (P8/5 tumor target cells; 20 h, nonadherent spleen cells, 20 hrs assay): 70%
- % Natural Killer Cell Cytotoxicity, + Compound 7 (K562 tumor cells; 0.05 - 0.4 mM, 20 to 68 h, maximum response, donors 1 to 11, one line per donor in order): 91% and 29% and 54% and 47% and 16% and 18% and 10% and 22% and 15% and 20% and 32%
- tests with an increase in the mediated potentiation (K562 tumor cells; Donor 1, Table 2b): eight of the eight tests
- tests with an increase in the mediated potentiation (K562 tumor cells; Donor 2, Table 2b): six of six tests
- mean natural killer cell cytotoxicity (K562 tumor cells; PBMNC from eleven donors pretreated with compound 7 (untreated mean 11.7%)): 32.2%
- % Natural Killer Cell Cytotoxicity (K562 tumor cells; Table 22, 0.2 mM): 10%
- % Increase in Induced Natural Killer Cell Activity (K562 tumor cells; donors 1 to 11, one line per donor in order): 1031% and 548% and 220% and 88% and 123% and 141% and 167% and 150% and 0% and 63% and 8%
- potentiation in natural killer cell cytotoxicity (K562 tumor cells; eight of eleven donors): over 100%
